Literature values as cited in US20120088773A1, “Circadian rhythm modulation” (priority 2010, published 2012).

How the values were obtained:
[1] = test system: D2 dopamine-mediated rotational behavior; details: prior administration, dopamine-depleted rats
[2] = test system: dopamine D(2) receptor; details: 200 mg oral caffeine compared to oral placebo
[3] = according to the CDC

CC(=O)N[C@@H](Cc1ccc(O)cc1)C(=O)O [N-acetyl-L-tyrosine]
water solubility: very water soluble

Cn1c(=O)c2c(ncn2C)n(C)c1=O [caffeine]
D2 dopamine-mediated rotational behavior [1]: can sensitize D2 dopamine-mediated rotational behavior
ventral striatal [(11)C]raclopride binding potential [2]: trend-level increase
decrease in midline thalamic binding potential ([2]; p<0.001): 12%

C=C1CC[C@H](O)C/C1=C/C=C1\CCC[C@]2(C)[C@@H]([C@H](C)CCCC(C)C)CC[C@@H]12 [vitamin D3, cholecalciferol]
half-life [3]: 24 to 48 h
